Experimental data as given in US11452758B2, “Antimicrobial peptide derived from LL37 peptide and uses thereof” (INDUSTRY-ACADEMIC COOPERATION FOUNDATION, CHOSUN UNIVERSITY, priority 2018, dated 2022).
Where two headings read alike, the source gives them in different places. Where a SMILES comes first, the peptide text is derived from it.

What was measured:
mouse erythrocytes = test: Hemolytic activity; format: cell-based; conditions: 1 hour at 37° C.
Protocol: To compare the cytotoxicity among the peptides that are produced by the method of Example 1, erythrocyte hemolytic activity of the synthesized peptide was measured.
Specifically, erythrocytes of a mouse (Balb/c, 6 week old, female) were diluted in PBS (pH 7.0) to have concentration of 8%, and then subjected to a treatment with LL37, LL37-1, LL37-2, LL37-3 or LL37-4, to have concentration of 1.56, 3.13, 6.25, 12.5, 25.0, 50.0 or 100.0 μM/well for each followed by a reaction for 1 hour at 37° C. After that, the amount of hemoglobin contained in a supernatant collected by centrifuge at 1,000×g was determined by measuring the absorbance at a wavelength of 414 nm. As a control group to be used as a reference for cell disruption level, the supernatant collected by a treatment with 1% Triton X-100 (Sigma, USA) and a reaction for 1 hour at 37° C. was used to measure the absorbance. By setting the resulting absorbance value at 100% of the hemolytic activity, hemolysis of each peptide was calculated using the following formula. Erythrocyte disrupting ability (%)=(Absorbance A−Absorbance B)/(Absorbance C−Absorbance B)×100 (in the above formula, Absorbance A indicates the absorbance of a reaction solution treated with each peptide, in which the absorbance is measured at a wavelength of 414 nm; Absorbance B indicates the absorbance of a reaction solution treated with PBS, in which the absorbance is measured at a wavelength of 414 nm; and Absorbance C indicates the absorbance of a reaction solution treated with 1% Triton X-100, in which the absorbance is measured at a wavelength of 414 nm).

[1] = tested on: Acinetobacter baumannii KCTC 2508; format: cell-based; conditions: A. baumannii KCTC 2508
Protocol: To determine the antimicrobial activity of peptides prepared by the method of above Example 1 in the presence of different ions in living body, minimal inhibitory concentration (MIC), i.e., lowest concentration of a peptide not allowing bacterial cell division, was measured.
Specifically, among the bacterial strains that are described in the above Table 2, Acinetobacter baumannii KCTC 2508 cells were cultured to a mid-log phase in MHB (Mueller Hinton Broth) medium, and, after diluting LL37-2 or LL37-4 peptide synthesized in the above Example 1 in a solution containing different kind of ions (sodium chloride, calcium chloride, magnesium chloride, and iron chloride) at different concentration, it was added to the plate in an amount of 50 μl per plate. After that, the cultured cells were diluted to cell concentration of 2×10^5 cells/50 μl, inoculated to a microtiter plate (NUNC, USA), and then cultured again for 18 hours at 37° C. By using a microtiter plate reader (Merck Elisa reader, Germany), absorbance at wavelength of 600 nm was measured and MIC value was determined for each strain. As a control, the MIC values of LL37, LL37-2 and LL37-4 for Acinetobacter baumannii KCTC 2508, which are shown in the above Table 3, were used.

CC[C@H](C)[C@H](NC(=O)[C@H](CCCNC(=N)N)NC(=O)[C@H](CCC(N)=O)NC(=O)[C@@H](NC(=O)[C@@H](NC(=O)[C@H](CCCNC(=N)N)NC(=O)[C@H](CCCCN)NC(=O)[C@H](Cc1ccccc1)NC(=O)[C@H](CCCCN)NC(=O)[C@@H](N)CCCCN)[C@@H](C)CC)C(C)C)C(=O)N[C@@H](CCCCN)C(=O)N[C@@H](CC(=O)O)C(=O)N[C@@H](Cc1ccccc1)C(=O)N[C@@H](CC(C)C)C(=O)N[C@@H](CCCNC(=N)N)C(=O)N[C@@H](CC(N)=O)C(N)=O [LL37-2, KKFKRIVQRIKDFLRN-NH2] (H-KKFKRIVQRIKDFLRN-NH2)
Erythrocyte disrupting ability (mouse erythrocytes; peptide 1.56 μM): 0% | Erythrocyte disrupting ability (mouse erythrocytes; peptide 3.13 μM): 0% | Erythrocyte disrupting ability (mouse erythrocytes; peptide 6.25 μM): 1% | Erythrocyte disrupting ability (mouse erythrocytes; peptide 12.5 μM): 1% | Erythrocyte disrupting ability (mouse erythrocytes; peptide 25 μM): 1% | Erythrocyte disrupting ability (mouse erythrocytes; peptide 50 μM): 1% | Minimal inhibitory concentration of antimicrobial peptide ([1]; Calcium chloride 1.25 mM): 4 µM | Minimal inhibitory concentration of antimicrobial peptide ([1]; Calcium chloride 2.5 mM): 4 µM | Minimal inhibitory concentration of antimicrobial peptide ([1]; Calcium chloride 5 mM): 8 µM | Minimal inhibitory concentration of antimicrobial peptide ([1]; Iron chloride 2 mM): 4 µM | Minimal inhibitory concentration of antimicrobial peptide ([1]; Iron chloride 4 mM): 4 µM | Minimal inhibitory concentration of antimicrobial peptide ([1]; Iron chloride 8 mM): 4 µM | Minimal inhibitory concentration of antimicrobial peptide ([1]; Magnesium chloride 0.5 mM): 4 µM | Minimal inhibitory concentration of antimicrobial peptide ([1]; Magnesium chloride 1 mM): 4 µM | Minimal inhibitory concentration of antimicrobial peptide ([1]; Magnesium chloride 2 mM): 4 µM | Minimal inhibitory concentration of antimicrobial peptide ([1]; Sodium chloride 50 mM): 8 µM | Minimal inhibitory concentration of antimicrobial peptide ([1]; Sodium chloride 100 mM): 16 µM | Minimal inhibitory concentration of antimicrobial peptide ([1]; Sodium chloride 150 mM): 32 µM
